From the Bradley open melting point set (2014)
Several values for one entry are separate records, joined by “and”; a condition that tells them apart may be missing. Equal values may be shown once.

Row | SMILES | melting point
1 | CCCCOC(=O)CCC [butyl butyrate] | -92 °C (3×) and -91.5 °C (2×)
2 | CC(C)(C)c1ccc(O)c(O)c1 [4-tert-butylcatechol] | 55 °C
3 | O=C1c2ccccc2-c2ccccc21 [9H-Fluoren-9-one] | 83 °C
4 | OB(O)c1ccc(F)cc1F [2,4-difluorobenzeneboronic acid] | 249 °C
5 | O=[N+]([O-])c1cccc2cccc(/C=N/c3ccccc3)c12 [N-[(1E)-(8-nitronaphthalen-1-yl)methylidene]aniline] | 115 °C
6 | CC(=O)Nc1ccc(OC(=O)c2ccccc2O)cc1 [acetaminosalol] | 187 °C
7 | O=[N+]([O-])c1c(Cl)c(Cl)c(Cl)c(Cl)c1Cl [Pentachloronitrobenzene] | 144 °C
8 | CCOP(=O)(OCC)OCC [Triethyl phosphate] | -56 °C
9 | OB(O)c1cc2ccccc2nc1Br [2-bromoquinoline-3-boronic acid] | 146 °C
10 | Nc1cccc2c(=O)[nH][nH]c(=O)c12 [3-aminophthalhydrazide] | 328 °C
11 | O=C(CCl)Nc1ccccc1[N+](=O)[O-] [2-chloro-2'-nitroacetanilide] | 88 °C
12 | COC(=O)CCC(C)C1CCC2C3C=CC4CC(OC(C)=O)CCC4(C)C3CC(OC(C)=O)C12C (centres undefined) [methyl 3,12-bis(acetyloxy)chol-6-en-24-oate] | 84 °C
13 | CN(C)C=O [N,N-dimethylformamide] | -61 °C
14 | O=Cc1cccnc1 [pyridine-3-carboxaldehyde] | 8 °C
15 | C=CC(N)=O [acrylamide] | 84 °C
16 | Nc1nc(=O)c2ncn(COCCO)c2[nH]1 [Aciclovir] | 257 °C
17 | N#Cc1c(F)c(F)c(F)c(C#N)c1F [2,4,5,6-Tetrafluoroisophthalonitrile] | 79 °C
18 | C=CCNC(N)=S [N-allylthiourea] | 74 °C
19 | COC(=O)C1C(=O)C=C(O)CC1C (centres undefined) [methyl 4-hydroxy-6-methyl-2-oxo-3-cyclohexene-1-carboxylate] | 123 °C
20 | C1=NN=C2CSCC12 (centres undefined) [4,6-dihydro-1H-thieno[3,4-c]pyrazole] | 133 °C

Row | SMILES | melting point
21 | COc1ccccc1CC#N [2-methoxyphenylacetonitrile] | 68 °C
22 | CCC1(CC)C(=O)CCNC1=O [piperidione] | 102 °C
23 | BrC(Br)Br [bromoform] | 9 °C
24 | CCC1C2=C(OC(=O)C1(C)C)c1ccc(OC)cc1CC2 (centres undefined) | 143 °C
25 | Oc1cccc(Cl)c1 [3-chlorophenol] | 32.5 °C
26 | Cn1cnc2c1c(=O)[nH]c(=O)n2C [theobromine] | 357 °C
27 | NC1CCCCC1 [cyclohexylamine] | -17 °C and -17.7 °C
28 | CC(C)CCCC(C)C1CCC2C3CC=C4CC(O)CCC4(C)C3CCC12C (centres undefined) [cholest-5-en-3-ol] | 148 °C
29 | Cc1ccccc1[N+](=O)[O-] [2-nitrotoluene] | -4 °C
30 | O=C(CCCc1ccccc1)c1ccccc1 [1,4-diphenyl-1-butanone] | 55 °C
31 | O=C(C(=O)c1cccs1)c1cccs1 [2,2'-thenil] | 83 °C
32 | CO/C(C)=C(\C#N)c1ccccc1[N+](=O)[O-] [(2Z)-3-methoxy-2-(2-nitrophenyl)but-2-enenitrile] | 68 °C
33 | O=C(O)c1ccc(I)cc1 [4-iodobenzoic acid] | 270 °C
34 | CCOC(=O)C(C#N)=c1sc(=C(C#N)C(=O)OCC)s1 [DIETHYL 2,2'-(1,3-DITHIETANE-2,4-DIYLIDENE)BIS(CYANOACETATE)] | 161 °C
35 | C/C=C/C1Nn2c(nnc2-c2ccccc2OC)S1 (centres undefined) | 125 °C
36 | CC(=O)Oc1ccccc1C(=O)O [2-Acetoxybenzoic acid] | 139 °C
37 | Cc1cccc(Nc2ccccc2C(=O)O)c1C [mefenamic acid] | 230 °C
38 | Cc1cc(/C=C2\S/C(=N\c3ccccc3)N(c3ccccc3)C2=O)c(C)n1-c1ccc(C(F)(F)F)cc1 [OSM-S-52] | 226 °C
39 | O=C(O)CCC(=O)O [succinic acid] | 188 °C and 187 °C
